“Also recorded” adds a separate entry of the source. Read-outs that look alike come from different tables or passages of the source.

For data set [1] the following is noted: cited from earlier work.
In data set [2] the test system is effects of morphine-like opioid agonist / heroin. Conditions: cited from earlier work.
The conditions of data set [3]: cited from earlier work. This is another data set of the same source.
The format of data set [4] is in vivo. From the text:
In certain other preferred embodiments, the opioid included in the dosage form is a different orally active opioid agonist than hydrocodone. […] Equianalgesic dosages of various opioid analgesics are provided below, and are otherwise known to those skilled in the art, e.g, from Foley, K. “The Treatment of Cancer Pain;” N. Engl.
In certain preferred embodiments, the opioid agonist is hydrocodone. Equianalgesic doses of the remaining opioids mentioned herein (and others) are known to those skilled in the art.

In data set [5] the test system is precipitated withdrawal / subjective effects of hydrocodone. In words: Example 3: precipitated withdrawal in morphine dependent volunteers receiving hydrocodone 30 mg and naltrexone oral solution. Type of data set: in vivo, human.
Data set [6] deals with opioid agonist properties of hydrocodone. The experiment in a line: Example 1: naltrexone antagonism of hydrocodone 15 mg (VAS drug effect, pupillometry), four-way crossover study.
Experimental: All treatments were administered under fasted conditions. […] Subjects were randomly assigned to four treatment sequences of the four treatment groups. […] Safety measurements consisted of reports of adverse events, vital signs, abnormal laboratory values, abnormal physical examination and ECG results. Pharmacodynamic parameters (pupil size and Modified Specific Drug Effect Questionnaire) were also assessed.
Pupil Size—Measured by Pupillometry.
The camera was centered in front of the subject's face with 3 inch frame against the lateral orbital rims and the eyes occupying the very top of the field (to minimize upgaze). The subject was asked to look just over the camera body and to fixate on a non-accommodative target in the distance, thereby minimizing the near reflex. With the volunteer fixing in the distance, the photo was taken. All photographs were taken in constant ambient light. The pupillary latency was such that the flash will not affect pupillary diameter. […] Development of the print for the recommended length of time (approximately one (1) minute, varying with ambient temperature) will produce a one-to-one photograph of the volunteer's midface, with the pupils at the top of the print. Horizontal pupillary diameter is then measured using a simple plus magnifier with a built-in reticule calibrated to 0.1 millimeter. Only the left eye was used to measure pupillary effects at each time period specified in the protocol. • b. A Modified Specific Drug Effect Questionnaire. […] The present questionnaire consisted of 10 items rated by the subject 10 minutes prior to blood sampling. The item is related to signs of opiate agonist drugs and was as follows: Subject questions: 1) do you feel any effects from the drugs?, 2) does your skin feel itchy?, 3) do you feel relaxed?, 4) do you feel sleepy?, 5) do you feel drunk?, 6) do you feel nervous?, 7) do you feel full of energy?, 8) do you feel you need to talk?, 9) do you feel sick to your stomach?, 10) do you feel dizzy? The subject then rated the item by placing a vertical mark along a 100 mm visual analog scale (VAS) anchored on one end by “not at all” and at the other end by “an awful lot”.
The conditions of data set [7]: cited from earlier work. This is another data set of the same source.
For the next data set, the system named is mu over delta sites. The settings on record: cited from earlier work.
In data set [8] the test system is opioid agonist effects of hydrocodone. The experiment in a line: Example 2: ratio of oral naltrexone to oral hydrocodone, ten-period crossover (VAS drug effect, pupil diameter). Type of data set: in vivo, human. The method, then: All treatments were administered under fasted conditions. […] Subjects were randomly assigned to ten treatment sequences of the ten treatment groups.
The fast continued for an additional four (4) hours post-dose.
All samples were collected within ±2 minute of the scheduled time.

The mark [9] stands for this setting: in comparison to a 15 mg dose of hydrocodone.
[10] abbreviates: 6.4-mg naltrexone dose, hydrocodone 15 mg.
Where [11] appears, read: 15 mg hydrocodone (HYIR/APAP) with increasing doses of naltrexone, range 0 mg-12.8 mg.

For the compound `CN1CC[C@]23c4c5ccc(O)c4O[C@H]2[C@@H](O)C=C[C@H]3[C@H]1C5.O=S(=O)(O)O` [morphine sulphate], the “oral hydrocodone dose equivalent to 15 mg i.m.” value in data set [1] (15 mg i.m.) is 30 mg.
For the compound `C=CCN1CC[C@]23c4c5ccc(O)c4O[C@H]2C(=O)CC[C@@]3(O)[C@H]1C5` [naloxone], in data set [2] (1 mg intravenously), the “block of the effect of 25 mg of heroin” value is on record as “completely block”. In addition, the “effect on morphine-like opioid agonist effects” value in [2] (0.4-0.8 mg intramuscularly or intravenously in man) was “prevent or promptly reverse”.
Turning to `CC(=O)Nc1ccc(O)cc1` [acetaminophen], the “solubility in water” value in data set [3] is “only poorly soluble in water”.
In the case of `COc1ccc2c3c1O[C@H]1[C@@H](O)C=C[C@H]4[C@@H](C2)N(C)CC[C@@]341` [Codeine], the “Equianalgesic Doses of Opioids, Calculated Dose” value in data set [4] (setting [9]) is 90.0 mg.
The same measure, in the same setting: then `COc1ccc2c3c1O[C@H]1C(=O)CC[C@@]4(O)[C@@H](C2)N(C)CC[C@]314` [Oxycodone], with 13.5 mg; and Meperidine, with 135.0 mg.
Regarding `COc1ccc2c3c1OC1C(=O)CC[C@H]4[C@@H](C2)N(C)CC[C@]314` (stereo partly drawn) [Hydrocodone, 4,5-epoxy-3-methoxy-17-methylmorphinan-6-one], the onset of effect in [5] (in combination with naltrexone) is < 0.5 h. Also, the pupillary constriction result in [6] (hydrocodone 15 mg plus naltrexone placebo) was “most pupillary constriction”. Further, the “Equianalgesic Doses of Opioids, Calculated Dose” value in data set [4] (setting [9]) is on record as 15.0 mg. In addition, the “relative analgesic potency versus oral morphine” value in [1] (in vivo, po) is reported as “about two times”.
With `C[C@H]1[C@H]2Cc3ccc(O)cc3[C@]1(C)CCN2CC1CC1` [cyclazocine], the “duration of action after oral doses” value in data set [7] is ~24 h.
As to `CN1CC[C@]23CCCC[C@H]2[C@H]1Cc1ccc(O)cc13` [Levorphanol], in [4] (setting [9]), the “Equianalgesic Doses of Opioids, Calculated Dose” value is on record as 1.8 mg.
Still for that read-out and setting: the figure for `CCC(=O)C(CC(C)N(C)C)(c1ccccc1)c1ccccc1` (stereo not drawn) [Methadone] is 9.0 mg.
On to `O=C1CC[C@@]2(O)[C@H]3Cc4ccc(O)c5c4[C@@]2(CCN3CC2CC2)[C@H]1O5` [naltrexone], for which the “precipitated withdrawal (abstinence)” value in data set [5] (naltrexone 1 and 2 mg with hydrocodone 30 mg, first protocol) was “slight abstinence”. For the same compound, in [5] (physically dependent subjects, hydrocodone 30 mg), the “subjective experience of hydrocodone on addition of naltrexone” value was “decreased the favorable subjective experience of hydrocodone”. Moreover, in data set [6] (setting [10]), the “block of the opioid effect (VAS drug effect) of hydrocodone” value is “not completely blocked” and the “block of the pupillary constriction of hydrocodone” value is reported as “not completely blocked”. The “antagonism of hydrocodone-induced pupillary constriction, relation to dose” value in data set [6] (naltrexone 3.2 and 6.4 mg with hydrocodone 15 mg, FIG. 2) is reported as “dose-response effect”. Besides, the “antagonism of hydrocodone-induced VAS drug effect, relation to dose” value in data set [6] (naltrexone oral solution 3.2 and 6.4 mg with hydrocodone 15 mg, FIG. 1) is “dose-response effect”. In [2] (50 mg given 24 hours prior to challenge), the “effect on opioid agonist effects of 25 mg intravenous heroin challenge” value is listed as “completely blocked or attenuated”. Also, the “blocking action, receptor preference” value with mu over delta sites is given as “strong preferential blocking action against mu over delta sites”. In addition, in data set [8] (setting [11]), the “drug effect VAS score” value is listed as “overall decrease” and the “pupillary constriction / pupil diameter” value is recorded as “decrease in pupillary constriction; also recorded: increase in pupil diameter”. For the same compound, the “antagonism of the 15 mg hydrocodone dose” value in data set [8] (approximately 0.4 mg naltrexone) is recorded as “minimally antagonized”. Moreover, the “effect of the hydrocodone dose” value in data set [8] (naltrexone dosages above 0.4 mg) is listed as “increasing diminution”.
For `CN1CC[C@]23c4c5ccc(O)c4O[C@H]2[C@@H](O)C=C[C@H]3[C@H]1C5` [Morphine], the “Equianalgesic Doses of Opioids, Calculated Dose” value in [4] (in vivo) is listed as 27.0 mg.

The values above are taken from patent publication US8936808B1, “Opioid agonist/opioid antagonist/acetaminophen combinations” (Purdue Pharma L.P., priority 1997, dated 2015).
